Laboratory results from ChEMBL document CHEMBL1201862, “PubChem BioAssay data set” (2004).
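Protocol summary: plate cells (96-well), add compound at 5 concentrations, incubate 48 h, interpolate endpoints linearly. GI50 = concentration required for 50% inhibition of growth.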 Calls of active or inactive are those of the source. No stated cut-off is given here; in the data, active = GI50 up to about 1.1 µM and inactive = higher.

Columns and labels:
Test in all cases: NCI-60 cell line screen, 48 h
UACC-257 = system: UACC-257
A498 = system: A498
SNB-19 = system: SNB-19
NCI-H460 = system: NCI-H460
Malme-3M = system: Malme-3M
HCT-15 = system: HCT-15
KM12 = system: KM12
OVCAR-5 = system: OVCAR-5
SK-MEL-2 = system: SK-MEL-2
TK-10 = system: TK-10
SF-295 = system: SF-295
HCT-116 = system: HCT-116
SK-MEL-5 = system: SK-MEL-5
OVCAR-3 = system: OVCAR-3
U-251 = system: U-251

SMILES	GI50 (UACC-257)	GI50 (A498)	GI50 (SNB-19)	GI50 (NCI-H460)	GI50 (Malme-3M)	GI50 (HCT-15) [µM]	GI50 (KM12)	GI50 (OVCAR-5)	GI50 (SK-MEL-2)	GI50 (TK-10)	GI50 (SF-295)	GI50 (HCT-116)	GI50 (SK-MEL-5)	GI50 (OVCAR-3)	GI50 (U-251)
CC1(C)CC23C(=O)N(c4ccccc4)C(Nc4ccccc4)=NC2=CC(C#N)=C(C#N)C3O1 (stereo not given)	43.3 µM (inactive)	26.4 µM (inactive)	89.9 µM (inactive)	43.8 µM (inactive)	46.3 µM (inactive)	64.9	46.6 µM (inactive)	> 100 µM (inactive)	61.5 µM (inactive)	> 100 µM (inactive)	46.7 µM (inactive)	89.5 µM (inactive)	28.1 µM (inactive)	> 100 µM (inactive)	> 100 µM (inactive)
COc1ccccc1-n1c(NN)nc2ccc(Br)cc2c1=O	24.4 µM (inactive)	–	37 µM (inactive)	42.8 µM (inactive)	39.4 µM (inactive)	35.6	38.6 µM (inactive)	18.2 µM (inactive)	44.4 µM (inactive)	28.4 µM (inactive)	34.5 µM (inactive)	–	19.3 µM (inactive)	51.2 µM (inactive)	35.4 µM (inactive)
N#CC1=C(Cl)NC(Cl)=C(C#N)C1c1c(Cl)cccc1Cl	22.1 µM (inactive)	94.6 µM (inactive)	27.9 µM (inactive)	18.4 µM (inactive)	46 µM (inactive)	16.2	21.8 µM (inactive)	> 100 µM (inactive)	58.3 µM (inactive)	36.5 µM (inactive)	41.7 µM (inactive)	18.7 µM (inactive)	21.5 µM (inactive)	25.1 µM (inactive)	16.3 µM (inactive)
CC1=C(O)C(=O)C2C(=O)C1C(C)C2c1ccccc1 (stereo not given)	> 100 µM (inactive)	> 100 µM (inactive)	> 100 µM (inactive)	–	> 100 µM (inactive)	> 100	> 100 µM (inactive)	> 100 µM (inactive)	> 100 µM (inactive)	> 100 µM (inactive)	> 100 µM (inactive)	–	> 100 µM (inactive)	> 100 µM (inactive)	> 100 µM (inactive)
Cc1nnc2n1N=C(c1ccccc1)C(c1ccccc1)S2 (stereo not given)	67.1 µM (inactive)	64 µM (inactive)	46.3 µM (inactive)	34.6 µM (inactive)	64.1 µM (inactive)	26.2	42.1 µM (inactive)	> 100 µM (inactive)	29.9 µM (inactive)	> 100 µM (inactive)	62.4 µM (inactive)	38.2 µM (inactive)	48.9 µM (inactive)	36.9 µM (inactive)	23.1 µM (inactive)
C=C(/C=C/C=C(\CO)CCC=C(C)C)[C@H]1CCC2([C@H](CCCO)/C(=C(/C)C=O)CC[C@]2(C)O)[C@H]1O (stereo not given in full)	> 100 µM (inactive)	> 100 µM (inactive)	> 100 µM (inactive)	56.8 µM (inactive)	> 100 µM (inactive)	> 100	> 100 µM (inactive)	> 100 µM (inactive)	> 100 µM (inactive)	82 µM (inactive)	21.2 µM (inactive)	> 100 µM (inactive)	> 100 µM (inactive)	> 100 µM (inactive)	> 100 µM (inactive)
O=C(O)C1CCc2nnc(-c3ccccc3)n21 (stereo not given)	> 100 µM (inactive)	> 100 µM (inactive)	> 100 µM (inactive)	> 100 µM (inactive)	> 100 µM (inactive)	> 100	> 100 µM (inactive)	–	> 100 µM (inactive)	> 100 µM (inactive)	–	> 100 µM (inactive)	> 100 µM (inactive)	> 100 µM (inactive)	> 100 µM (inactive)
N/C=N/S(=O)(=O)c1ccc(NC(=O)COC(=O)c2cccc3c(=O)c4ccccc4[nH]c23)cc1	> 100 µM (inactive)	–	> 100 µM (inactive)	> 100 µM (inactive)	> 100 µM (inactive)	> 100	> 100 µM (inactive)	–	–	> 100 µM (inactive)	> 100 µM (inactive)	> 100 µM (inactive)	> 100 µM (inactive)	> 100 µM (inactive)	> 100 µM (inactive)
O=S(O)CCCCSSCCCCSSCCCCS(=O)O	10.1 µM (inactive)	96.6 µM (inactive)	> 100 µM (inactive)	53.1 µM (inactive)	15.8 µM (inactive)	42.7	76 µM (inactive)	> 100 µM (inactive)	24.9 µM (inactive)	26.4 µM (inactive)	30.1 µM (inactive)	> 100 µM (inactive)	10.7 µM (inactive)	33.9 µM (inactive)	> 100 µM (inactive)
CCCCOC(=O)C1C2CCC(O2)C1C(=O)OCCCC (stereo not given)	> 55.1 µM (inactive)	> 100 µM (inactive)	> 100 µM (inactive)	4.17 µM (inactive)	> 100 µM (inactive)	> 65.2	> 100 µM (inactive)	> 89.9 µM (inactive)	> 100 µM (inactive)	> 100 µM (inactive)	> 100 µM (inactive)	> 45.6 µM (inactive)	> 100 µM (inactive)	> 100 µM (inactive)	> 65.6 µM (inactive)
COc1ccc2ccccc2c1C1OC(=O)c2ccccc21 (stereo not given)	91 µM (inactive)	> 100 µM (inactive)	> 100 µM (inactive)	–	> 100 µM (inactive)	> 100	56.6 µM (inactive)	> 100 µM (inactive)	–	> 100 µM (inactive)	56.2 µM (inactive)	–	> 100 µM (inactive)	> 100 µM (inactive)	> 100 µM (inactive)
CS(=O)(=O)CC1=Nc2nnc(CCCCCCCc3nnc4n3C(=O)C(CS(C)(=O)=O)=N4)n2C1=O	> 100 µM (inactive)	> 100 µM (inactive)	> 100 µM (inactive)	> 100 µM (inactive)	> 100 µM (inactive)	> 100	> 100 µM (inactive)	> 100 µM (inactive)	–	> 100 µM (inactive)	> 100 µM (inactive)	> 100 µM (inactive)	> 100 µM (inactive)	> 100 µM (inactive)	> 100 µM (inactive)
CCc1cccc(CC)c1NC(=O)C1=C(C)NC(C)=C(C(=O)Nc2c(CC)cccc2CC)C1c1ccc([N+](=O)[O-])cc1	15.4 µM (inactive)	19 µM (inactive)	54.5 µM (inactive)	17.5 µM (inactive)	17.3 µM (inactive)	–	18 µM (inactive)	44.7 µM (inactive)	20 µM (inactive)	30.4 µM (inactive)	15.5 µM (inactive)	15.1 µM (inactive)	15.1 µM (inactive)	32.1 µM (inactive)	40.5 µM (inactive)
Cc1ccccc1NC(=O)C(=O)CC(=O)c1c(C)[n+]([O-])c2ccccc2[n+]1[O-]	16 µM (inactive)	> 100 µM (inactive)	> 100 µM (inactive)	> 100 µM (inactive)	> 100 µM (inactive)	> 100	59.8 µM (inactive)	> 100 µM (inactive)	> 100 µM (inactive)	–	> 100 µM (inactive)	> 100 µM (inactive)	–	> 100 µM (inactive)	> 100 µM (inactive)
O=S(=O)(Sc1ccc(Cl)cc1)c1ccc(Cl)cc1	16.6 µM (inactive)	15.9 µM (inactive)	19.3 µM (inactive)	17.1 µM (inactive)	17.5 µM (inactive)	17.7	14.7 µM (inactive)	19.9 µM (inactive)	3.84 µM (inactive)	21.4 µM (inactive)	12.2 µM (inactive)	14.9 µM (inactive)	15.2 µM (inactive)	15.5 µM (inactive)	10.3 µM (inactive)
Nc1nc2c(-c3ccc([N+](=O)[O-])cc3)nnn2c2ccccc12	–	> 100 µM (inactive)	17.5 µM (inactive)	> 100 µM (inactive)	> 100 µM (inactive)	> 100	> 100 µM (inactive)	> 100 µM (inactive)	> 100 µM (inactive)	21 µM (inactive)	62.1 µM (inactive)	–	–	29.6 µM (inactive)	17.9 µM (inactive)
O=C1Nc2ccc([N+](=O)[O-])cc2/C1=N/Nc1ccc([N+](=O)[O-])cc1	21.1 µM (inactive)	59.3 µM (inactive)	17.6 µM (inactive)	12.8 µM (inactive)	–	21.4	12.4 µM (inactive)	–	30.1 µM (inactive)	24.8 µM (inactive)	11.8 µM (inactive)	–	12.2 µM (inactive)	20.1 µM (inactive)	19.8 µM (inactive)
CC(=O)Nc1ccc(/C=N\N2C(=O)c3ccccc3C2=O)cc1	> 100 µM (inactive)	> 100 µM (inactive)	> 100 µM (inactive)	> 100 µM (inactive)	> 100 µM (inactive)	> 100	> 100 µM (inactive)	> 100 µM (inactive)	> 100 µM (inactive)	> 100 µM (inactive)	> 100 µM (inactive)	> 100 µM (inactive)	> 100 µM (inactive)	> 100 µM (inactive)	–
Cc1c(NC(=S)NC(=O)c2ccc([N+](=O)[O-])cc2)c(=O)n(-c2ccccc2)n1C	> 100 µM (inactive)	> 100 µM (inactive)	> 100 µM (inactive)	> 100 µM (inactive)	> 100 µM (inactive)	> 100	> 100 µM (inactive)	> 100 µM (inactive)	> 100 µM (inactive)	> 100 µM (inactive)	> 100 µM (inactive)	> 100 µM (inactive)	> 100 µM (inactive)	> 100 µM (inactive)	> 100 µM (inactive)
O=C1c2ccccc2C(=O)N1CCN(CCN1C(=O)c2ccccc2C1=O)Cc1ccccc1	> 100 µM (inactive)	> 100 µM (inactive)	> 100 µM (inactive)	> 100 µM (inactive)	–	> 100	> 100 µM (inactive)	–	> 100 µM (inactive)	> 100 µM (inactive)	> 100 µM (inactive)	> 100 µM (inactive)	> 100 µM (inactive)	> 100 µM (inactive)	> 100 µM (inactive)
